Test results published in PubChem BioAssay (NCI).
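The compound was tested at five concentrations on cells cultured in 96-well plates, with a 48-hour exposure period. TGI is the concentration that stops growth completely.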

Legend:
Experiment in all cases: NCI-60 cell line screen, 48 h
[1] = tested on: A498 renal
[2] = tested on: A549 NSCLC
[3] = tested on: ACHN renal
[4] = tested on: CAKI-1 renal
[5] = tested on: COLO 205 colon
[6] = tested on: DLD-1 colon
[7] = tested on: DMS 114 small cell lung
[8] = tested on: DMS 273 small cell lung
[9] = tested on: HCT-116 colon
[10] = tested on: HCT-15 colon
[11] = tested on: HOP-92 NSCLC
[12] = tested on: HT29 colon
[13] = tested on: IGROV1 ovarian
[14] = tested on: KM12 colon
[15] = tested on: KM20L2 colon
[16] = tested on: LOX IMVI melanoma
[17] = tested on: LXFL 529 NSCLC
[18] = tested on: M14 melanoma
[19] = tested on: MALME-3M melanoma
[20] = tested on: NCI-H226 lung
[21] = tested on: NCI-H23 lung
[22] = tested on: NCI-H522 lung
[23] = tested on: OVCAR-3 ovarian
[24] = tested on: OVCAR-4 ovarian
[25] = tested on: OVCAR-5 ovarian
[26] = tested on: OVCAR-8 ovarian
[27] = tested on: RPMI-8226 leukemia
[28] = tested on: RXF 393 renal
[29] = tested on: RXF-631 renal
[30] = tested on: SF-295 CNS
[31] = tested on: SF-539 CNS
[32] = tested on: SK-MEL-2 melanoma
[33] = tested on: SK-MEL-28 melanoma
[34] = tested on: SK-MEL-5 melanoma
[35] = tested on: SK-OV-3 ovarian
[36] = tested on: SN12C renal
[37] = tested on: SNB-19 CNS
[38] = tested on: SNB-75 CNS
[39] = tested on: SNB-78 CNS
[40] = tested on: SW-620 colon
[41] = tested on: TK-10 renal
[42] = tested on: U251 CNS
[43] = tested on: UACC-257 melanoma
[44] = tested on: UACC-62 melanoma
[45] = tested on: UO-31 renal
[46] = tested on: XF 498 CNS
[47] = tested on: 786-0 renal
[48] = tested on: CCRF-CEM leukemia
[49] = tested on: EKVX NSCLC
[50] = tested on: HCC-2998 colon
[51] = tested on: HL-60(TB) leukemia
[52] = tested on: HOP-18 NSCLC
[53] = tested on: HOP-62 NSCLC
[54] = tested on: K-562 leukemia
[55] = tested on: M19-MEL melanoma
[56] = tested on: MOLT-4 leukemia
[57] = tested on: NCI-H460 lung
[58] = tested on: SF-268 CNS

## COC(=O)C1=C(C)N(NC(=O)c2ccccc2)C2(O)CCCC(=O)C12C (centres undefined)
[1]
  TGI: > 100 µM
[2]
  TGI: > 100 µM
[3]
  TGI: > 100 µM
[4]
  TGI: > 100 µM
[5]
  TGI: > 100 µM
[6]
  TGI: > 100 µM
[7]
  TGI: > 100 µM
[8]
  TGI: > 100 µM
[9]
  TGI: > 100 µM
[10]
  TGI: > 100 µM
[11]
  TGI: > 100 µM
[12]
  TGI: > 100 µM
[13]
  TGI: > 100 µM
[14]
  TGI: > 100 µM
[15]
  TGI: > 100 µM
[16]
  TGI: > 100 µM
[17]
  TGI: > 100 µM
[18]
  TGI: > 100 µM
[19]
  TGI: > 100 µM
[20]
  TGI: > 100 µM
[21]
  TGI: > 100 µM
[22]
  TGI: > 100 µM
[23]
  TGI: > 100 µM
[24]
  TGI: > 100 µM
[25]
  TGI: > 100 µM
[26]
  TGI: > 100 µM
[27]
  TGI: > 100 µM
[28]
  TGI: > 100 µM
[29]
  TGI: > 100 µM
[30]
  TGI: > 100 µM
[31]
  TGI: > 100 µM
[32]
  TGI: > 100 µM
[33]
  TGI: > 100 µM
[34]
  TGI: > 100 µM
[35]
  TGI: > 100 µM
[36]
  TGI: > 100 µM
[37]
  TGI: > 100 µM
[38]
  TGI: > 100 µM
[39]
  TGI: > 100 µM
[40]
  TGI: > 100 µM
[41]
  TGI: > 100 µM
[42]
  TGI: > 100 µM
[43]
  TGI: > 100 µM
[44]
  TGI: > 100 µM
[45]
  TGI: > 100 µM
[46]
  TGI: > 100 µM

## O=C(COc1ccc(Cl)cc1)N1CCN(C(=O)COc2ccc(Cl)cc2)c2ccccc21
[47]
  TGI: > 100 µM
[1]
  TGI: > 100 µM
[2]
  TGI: > 100 µM
[3]
  TGI: > 100 µM
[48]
  TGI: > 100 µM
[5]
  TGI: > 100 µM
[6]
  TGI: > 100 µM
[7]
  TGI: > 100 µM
[8]
  TGI: > 100 µM
[49]
  TGI: > 100 µM
[50]
  TGI: > 100 µM
[9]
  TGI: > 100 µM
[51]
  TGI: 37.2 µM
[52]
  TGI: > 100 µM
[53]
  TGI: > 100 µM
[11]
  TGI: > 100 µM
[12]
  TGI: > 100 µM
[13]
  TGI: > 100 µM
[54]
  TGI: > 100 µM
[14]
  TGI: > 100 µM
[15]
  TGI: > 100 µM
[16]
  TGI: > 100 µM
[17]
  TGI: > 100 µM
[55]
  TGI: > 100 µM
[19]
  TGI: > 100 µM
[56]
  TGI: > 100 µM
[21]
  TGI: > 100 µM
[57]
  TGI: > 100 µM
[22]
  TGI: > 100 µM
[23]
  TGI: > 100 µM
[25]
  TGI: > 100 µM
[26]
  TGI: > 100 µM
[27]
  TGI: > 100 µM
[28]
  TGI: > 100 µM
[58]
  TGI: > 100 µM
[30]
  TGI: > 100 µM
[31]
  TGI: > 100 µM
[32]
  TGI: > 100 µM
[33]
  TGI: > 100 µM
[35]
  TGI: > 100 µM
[38]
  TGI: > 100 µM
[39]
  TGI: > 100 µM
[40]
  TGI: > 100 µM
[41]
  TGI: > 100 µM
[42]
  TGI: > 100 µM
[43]
  TGI: > 100 µM
[45]
  TGI: 53.9 µM
[46]
  TGI: > 100 µM
